Experimental data reported in patent US11603380B2 (Centre national de la recherche scientifique, priority 2018, dated 2023).

Tests used:
[1] = system: human cytomegalovirus (HCMV) (AD-169); assay: microbe, parasite or virus in culture; type: cell-based; details: Human betaherpesvirus 5, AD169, HEL, read-out: EC50 HCMV (AD-169)
[2] = system: human cytomegalovirus (HCMV) (Davis); assay: microbe, parasite or virus in culture; type: cell-based; details: Human betaherpesvirus 5, HEL, read-out: EC50 HCMV (Davis)
[3] = system: Vaccinia Virus; assay: microbe, parasite or virus in culture; type: cell-based; details: Orthopoxvirus vaccinia, HEL, read-out: EC50 Vaccinia Virus
[4] = in vitro; details: human
[5] = system: varicella-zoster virus (VZV) TK+ (OKA); assay: microbe, parasite or virus in culture; type: cell-based; details: Human alphaherpesvirus 3, HEL, read-out: EC50 VZV TK+ (OKA)
[6] = system: varicella-zoster virus (VZV) TK− (07/1); assay: microbe, parasite or virus in culture; type: cell-based; details: Human alphaherpesvirus 3, HEL, read-out: EC50 VZV TK− (07/1)
[7] = system: HEL cell cultures; details: human
[8] = system: herpes simplex virus 1 (HSV-1) (KOS); assay: microbe, parasite or virus in culture; type: cell-based; details: Human alphaherpesvirus 1, HEL, read-out: EC50 HSV-1 (KOS)
[9] = system: HSV-2 (G); assay: microbe, parasite or virus in culture; type: cell-based, herpes simplex virus 2; details: Human alphaherpesvirus 2, HEL, read-out: EC50 HSV-2 (G)
[10] = system: HSV-1 (KOS ACV) TK−; assay: microbe, parasite or virus in culture; type: cell-based, herpes simplex virus 1; details: Human alphaherpesvirus 1, read-out: EC50 HSV-1 (KOS ACV) TK−
[11] = system: Feline Herpes Virus; assay: organism not typed; type: cell-based; details: read-out: EC50 Feline Herpes Virus

SMILES | EC50 [1] | EC50 [2] | EC50 [3] | CC50 [4] | CC50 ([4]; Cytotoxicity CC50) | EC50 [5] | EC50 [6] | Cytotoxicity MCC [7] | EC50 [8] | EC50 [9] | EC50 [10] | EC50 [11] | CC50 at 3 days [4]
Nc1nc2c(ncn2COCCO)c(=O)[nH]1 [Acyclovir, reference compound] | 0.4 µM | 250 µM | > 100 µM | 134 ± 10 µM | > 100 µM |  |  |  |  |  |  |  | 
O=c1[nH]c(=O)n([C@H]2C[C@H](O)[C@@H](CO)O2)cc1/C=C/Br [Brivudine, reference compound] | 0.08 µM | 250 µM | 22 µM | 339 µM | > 100 µM | 0.01 µM | 117 µM | >100 µM |  |  |  |  | 
CC(=O)OC/C(=C\CP(=O)(OCOC(=O)OC(C)C)OCOC(=O)OC(C)C)COc1cc(N)nc(N)n1 [Compound (6), [(Z)-4-[bis(isopropoxycarbonyloxymethoxy)phosphoryl]-2-[(2,6-diaminopyrimidin-4-yl)oxymethyl]but-2-enyl]acetate] | > 20 µM | 49.7 µM | 4.1 ± 2.4 µM |  |  | 0.089 µM | 0.22 µM | >100 µM | 0.6 ± 0.2 µM | 0.35 ± 0.05 µM | 0.4 µM | > 100 µM | 15.4 µM
CC(C)(C)C(=O)OCOP(=O)(/C=C/COc1cc(N)nc(N)n1)OCOC(=O)C(C)(C)C [Compound (9), [[(E)-3-(2,6-diaminopyrimidin-4-yl)oxyprop-1-enyl]-(2,2-dimethyl-propanoyloxymethoxy)phosphoryl]oxymethyl 2,2-dimethylpropanoate] | > 100 µM | > 100 µM | > 100 µM |  |  | 76.5 µM | > 100 µM | >100 µM | > 100 µM | > 100 µM | > 100 µM | > 100 µM | 
CC(C)(C)C(=O)OCOP(=O)(CC/C=C/COc1cc(N)nc(N)n1)OCOC(=O)C(C)(C)C [Compound (10), [[(E)-5-(2,6-diaminopyrimidin-4-yl)oxypent-3-enyl]-(2,2-dimethyl-propanoyloxymethoxy)phosphoryl]oxymethyl 2,2-dimethylpropanoate] | > 100 µM | > 100 µM | > 100 µM |  |  | 34.2 µM | 24.5 µM | 100 µM | > 100 µM | > 100 µM | > 100 µM | > 100 µM | 
C/C(=C\CP(=O)(OCOC(=O)C(C)(C)C)OCOC(=O)C(C)(C)C)COc1cc(N)nc(N)n1 [Compound (11), [[(E)-4-(2,6-diaminopyrimidin-4-yl)oxy-3-methyl-but-2-enyl]-(2,2-dimethyl-propanoyloxymethoxy)phosphoryl]oxymethyl 2,2-dimethylpropanoate] | > 100 µM | > 100 µM | 49.3 µM |  |  | 51.5 µM | 49.3 µM | >100 µM | > 100 µM | > 100 µM | 51.5 µM | > 100 µM | 
CC(C)(C)C(=O)OCOP(=O)(CCCCOc1cc(N)nc(N)n1)OCOC(=O)C(C)(C)C [Compound (12)] | 44.7 µM | > 20 µM | > 100 µM |  |  | 11.3 µM | 11 µM | >100 µM | 39.5 µM | 39.5 µM | 42 µM | > 100 µM | 54.9 µM
Nc1nc(O)c2ncn(COC(CO)CO)c2n1 [Ganciclovir, reference compound] |  |  | > 100 µM |  | > 100 µM |  |  | >100 µM |  | 0.06 µM |  | 1.4 µM | 
